biological target: T1, human PAR4 (Homo sapiens, UniProt Q96RI0); test: PAR4 FLIPR assay: antagonism of agonist-peptide-induced calcium mobilization in PAR4-expressing HEK293 cells; format: cell-based; details: H-Ala-Phe(4-F)-[…]NH2-induced intracellular calcium mobilization, 11-point curves
T1 construct: expressed in transfected cells; host or cells: HEK293 PAR4 Clone 1.2A (BMS Arctic ID 383940)
T1 sequence (Q96RI0 18-385): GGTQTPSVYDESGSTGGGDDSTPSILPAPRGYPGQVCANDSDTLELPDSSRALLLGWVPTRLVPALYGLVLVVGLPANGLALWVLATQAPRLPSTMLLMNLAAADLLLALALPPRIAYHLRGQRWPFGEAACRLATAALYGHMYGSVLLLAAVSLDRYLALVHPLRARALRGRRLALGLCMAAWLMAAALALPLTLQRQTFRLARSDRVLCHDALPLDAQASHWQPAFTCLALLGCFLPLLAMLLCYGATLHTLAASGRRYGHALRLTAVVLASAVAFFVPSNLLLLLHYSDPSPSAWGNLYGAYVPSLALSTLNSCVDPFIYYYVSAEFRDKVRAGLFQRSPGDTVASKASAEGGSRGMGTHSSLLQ

First: Cc1ncc(NC(=O)O[C@H](C)[C@H](C)Oc2cc3sc(-c4cc(Cl)cc5cc(OCC(F)F)cnc45)nc3cc2F)cn1 [Example 651, (2R,3S)-3-((2-(6-chloro-3-(2,2-difluoroethoxy)quinolin-8-yl)-5-fluorobenzo[d]thiazol-6-yl)oxy)butan-2-yl (2-methylpyrimidin-5-yl)carbamate]
Second: Cc1cc(-c2nc3cc(F)c(O[C@@H](C)[C@@H](C)OC(=O)Nc4cnc(C)nc4)cc3s2)c2ncc(OC(F)F)cc2c1 [Example 659, (2R,3S)-3((2-(3-(difluoromethoxy)-6-methylquinolin-8-yl)-5-fluorobenzo[d]thiazol-6-yl)oxy)butan-2-yl (2-methylpyrimidin-5-yl)carbamate]
The IC50 of the first is 2-fold higher: 4.3 nM for the first, 2.1 nM for the second.

Going from CNc1cnc2c(-c3nc4cc(F)c(O[C@@H](C)[C@@H](C)OC(=O)Nc5cnc(C)nc5)cc4s3)cc(Cl)cc2c1 [Example 652, (2R,3S)-3-((2-(6-chloro-3-(methylamino)quinolin-8-yl)-5-fluorobenzo[d]thiazol-6-yl)oxy)butan-2-yl (2-methylpyrimidin-5-yl)carbamate] to COc1cnc2c(-c3nc4cc(F)c(O[C@@H](C)[C@@H](C)OC(=O)Nc5cnc(C)nc5)cc4s3)cc(CF)cc2c1 [Example 654, (2R,3S)-3-((5-fluoro-2-(6-(fluoromethyl)-3-methoxyquinolin-8-yl)benzo[d]thiazol-6-yl)oxy)butan-2-yl (2-methylpyrimidin-5-yl)carbamate], the IC50 falls from 11 nM to 1 nM (11-fold).

COc1cnc2c(-c3nc4cc(F)c(O[C@@H](C)[C@@H](C)OC(=O)Nc5cnc(C)nc5)cc4s3)cc(C(F)F)cc2c1 [Example 653, (2R,3S)-3-((2-(6-(difluoromethyl)-3-methoxyquinolin-8-yl)-5-fluorobenzo[d]thiazol-6-yl)oxy)butan-2-yl (2-methylpyrimidin-5-yl)carbamate] and COc1cnc2c(-c3nc4cc(F)c(O[C@@H](C)[C@@H](C)OC(=O)Nc5cnc(C)nc5)cc4s3)cc(C#N)cc2c1 [Example 655, (2R,3S)-3-((2-(6-cyano-3-methoxyquinolin-8-yl)-5-fluorobenzo[d]thiazol-6-yl)oxy)butan-2-yl (2-methylpyrimidin-5-yl)carbamate] are within 1.5-fold of each other in IC50: 0.83 nM for the first, 1.1 nM for the second.

COc1cnc2c(-c3nc4c(C(O)C5(C(F)(F)F)CCC5)cc(OC)cc4s3)cc(Cl)cc2c1 (stereo not drawn) [Example 656, (2-(6-chloro-3-methoxyquinolin-8-yl)-6-methoxybenzo[d]thiazol-4-yl)(1-(trifluoromethyl)cyclobutyl)methanol] and COc1cc(C(O)C2(C(F)(F)F)CCC2)c2nc(-c3cc(C)cc4nc(OC)cnc34)sc2c1 (stereo not drawn) [Example 669] are within 1.5-fold of each other in IC50: 2.4 nM for the first, 2.3 nM for the second.

Going from COc1cnc2c(-c3nc4cc(F)c(O[C@@H](C)[C@@H](C)OC(=O)Nc5cnc(C)nc5)cc4s3)cc(OC)cc2c1 [Example 657, (2R,3S)-3-((2-(3,6-dimethoxyquinolin-8-yl)-5-fluorobenzo[d]thiazol-6-yl)oxy)butan-2-yl (2-methylpyrimidin-5-yl)carbamate] to CCOc1cnc2c(-c3nc4cc(F)c(O[C@@H](C)[C@@H](C)OC(=O)Nc5cnc(C)nc5)cc4s3)cc(C)cc2c1 [Example 660, (2R,3S)-3-((2-(3-ethoxy-6-methylquinolin-8-yl)-5-fluorobenzo[d]thiazol-6-yl)oxy)butan-2-yl (2-methylpyrimidin-5-yl)carbamate], the IC50 rises from 1.1 nM to 2 nM (1.8-fold). The first is the more potent here.

First: COc1cnc2c(-c3nc4c(C(O)C(C)(C)C)cc(OCCOC(=O)Nc5ccncc5)cc4s3)cc(C)cc2n1 (stereo not drawn) [Example 658, 2-((4-(1-hydroxy-2,2-dimethylpropyl)-2-(2-methoxy-7-methylquinoxalin-5-yl)benzo[d]thiazol-6-yl)oxy)ethyl pyridin-4-ylcarbamate]
Second: COc1cnc2c(-c3nc4cc(F)c(OC[C@@H](C)OC(=O)Nc5ccncc5)nc4s3)cc(C)cc2n1 [Example 680, (R)-1-((6-fluoro-2-(2-methoxy-7-methylquinoxalin-5-yl)thiazolo[5,4-b]pyridin-5-yl)oxy) propan-2-yl pyridin-4-ylcarbamate]
The IC50 of the first is 3.8-fold higher: 3 nM for the first, 0.8 nM for the second. The second is the more potent here.

Going from CCOc1cnc2c(-c3cc4ccccc4o3)cc(C)cc2n1 [Example 661, 5-(benzofuran-2-yl)-2-ethoxy-7-methylquinoxaline] to COc1cc(C(O)C2(c3ccccc3)CC2)c2nc(-c3cc(C)cc4nc(OC)cnc34)sc2c1 (stereo not drawn) [Example 668, (6-methoxy-2-(2-methoxy-7-methylquinoxalin-5-yl)benzo[d]thiazol-4-yl)(1-phenylcyclopropyl)methanol], the IC50 falls from 55 nM to 7.3 nM (7.5-fold). The second is the more potent here.

Going from COc1ccc(OC(=O)NCCOc2cc(C)c3nc(-c4cc(C)cc5nc(OC)cnc45)sc3n2)cc1 [Example 662, 4-methoxyphenyl (2-((2-(2-methoxy-7-methylquinoxalin-5-yl)-7-methylthiazolo[5,4-b]pyridin-5-yl)oxy)ethyl)carbamate] to COc1cc(C(O)c2nccs2)c2nc(-c3cc(C)cc4nc(OC)cnc34)sc2c1 (stereo not drawn) [Example 673, (6-methoxy-2-(2-methoxy-7-methylquinoxalin-5-yl)benzo[d]thiazol-4-yl)(thiazol-2-yl)methanol], the IC50 falls from 77 nM to 39 nM (2-fold). The second is the more potent here.

First: COc1cc(C(O)C2CCOCC2)c2nc(-c3cc(C)cc4nc(OC)cnc34)sc2c1 (stereo not drawn) [Example 663, (6-methoxy-2-(2-methoxy-7-methylquinoxalin-5-yl)benzo[d]thiazol-4-yl)(tetrahydro-2H-pyran-4-yl)methanol]
Second: COc1cc(C(O)C2(C)CCOCC2)c2nc(-c3cc(C)cc4nc(OC)cnc34)sc2c1 (stereo not drawn) [Example 674, (6-methoxy-2-(2-methoxy-7-methylquinoxalin-5-yl)benzo[d]thiazol-4-yl)(4-methyltetrahydro-2H-pyran-4-yl)methanol]
The IC50 of the first is 2.9-fold lower: 7 nM for the first, 20 nM for the second. The first is the more potent here.

Going from COc1cc(C(O)C2(c3ccccc3)CCC2)c2nc(-c3cc(C)cc4nc(OC)cnc34)sc2c1 (stereo not drawn) [Example 665, (6-methoxy-2-(2-methoxy-7-methylquinoxalin-5-yl)benzo[d]thiazol-4-yl)(1-phenylcyclobutyl)methanol] to COc1cc(C(O)C2(OC)CCC2)c2nc(-c3cc(C)cc4nc(OC)cnc34)sc2c1 (stereo not drawn) [Example 666, (6-methoxy-2-(2-methoxy-7-methylquinoxalin-5-yl)benzo[d]thiazol-4-yl)(1-methoxycyclobutyl)methanol], the IC50 falls from 1.7 nM to 1.1 nM (1.5-fold). The second is the more potent here.

First: COc1cc(C(O)C2(C(F)(F)F)CC2)c2nc(-c3cc(C)cc4nc(OC)cnc34)sc2c1 (stereo not drawn) [Example 667, (6-methoxy-2-(2-methoxy-7-methylquinoxalin-5-yl)benzo[d]thiazol-4-yl)(1-(trifluoromethyl)cyclopropyl)methanol]
Second: COc1cc(C(O)C2(C)CC2)c2nc(-c3cc(C)cc4nc(OC)cnc34)sc2c1 (stereo not drawn) [Example 671, (6-methoxy-2-(2-methoxy-7-methylquinoxalin-5-yl)benzo[d]thiazol-4-yl)(1-methylcyclopropyl)methanol]
The IC50 of the first is 2.9-fold higher: 5.6 nM for the first, 1.9 nM for the second.

Going from COc1cc(C(O)C2(C)CCCCC2)c2nc(-c3cc(C)cc4nc(OC)cnc34)sc2c1 (stereo not drawn) [Example 672, (6-methoxy-2-(2-methoxy-7-methylquinoxalin-5-yl)benzo[d]thiazol-4-yl)(1-methylcyclohexyl)methanol] to COc1cc(C(C)O)c2nc(-c3cc(C)cc4nc(OC)cnc34)sc2c1 (stereo not drawn) [Example 677, 1-(6-methoxy-2-(2-methoxy-7-methylquinoxalin-5-yl)benzo[d]thiazol-4-yl)ethan-1-ol], the IC50 rises from 1.9 nM to 3.8 nM (2-fold).

First: COc1cc(F)cc(C(O)c2cc(OC)cc3sc(-c4cc(C)cc5nc(OC)cnc45)nc23)c1 (stereo not drawn) [Example 675, (3-fluoro-5-methoxyphenyl)(6-methoxy-2-(2-methoxy-7-methylquinoxalin-5-yl)benzo[d]thiazol-4-yl)methanol]
Second: COc1cc(C(O)C2(C)CCCCC2)c2nc(-c3cc(C)cc4nc(OC)cnc34)sc2c1 (stereo not drawn) [Example 676, (6-methoxy-2-(2-methoxy-7-methylquinoxalin-5-yl)benzo[d]thiazol-4-yl)(1-methylcyclohexyl)methanol]
The IC50 of the first is 3.1-fold higher: 10 nM for the first, 3.2 nM for the second.

Going from COc1cnc2c(-c3nc4cc(F)c(OC[C@@H](C)OC(=O)Nc5cnc(C)nc5)nc4s3)cc(C)cc2n1 [Example 678, (R)-1-((6-fluoro-2-(2-methoxy-7-methylquinoxalin-5-yl)thiazolo[5,4-b]pyridin-5-yl)oxy)propan-2-yl (2-methylpyrimidin-5-yl)carbamate] to COc1cnc2c(-c3nc4cc(F)c(OC[C@@H](C)OC(=O)Nc5cnc(OC)nc5)nc4s3)cc(C)cc2n1 [Example 679, (R)-1-((6-fluoro-2-(2-methoxy-7-methylquinoxalin-5-yl)thiazolo[5,4-b]pyridin-5-yl)oxy) propan-2-yl (2-methoxypyrimidin-5-yl)carbamate], the IC50 rises from 1 nM to 2.5 nM (2.5-fold). The first is the more potent here.

Going from COc1cnc2c(-c3nc4cc(F)c(OC[C@@H](C)OC(=O)Nc5ccc(C)nc5)nc4s3)cc(C)cc2n1 [Example 681, (R)-1-((6-fluoro-2-(2-methoxy-7-methylquinoxalin-5-yl)thiazolo[5,4-b]pyridin-5-yl)oxy) propan-2-yl (6-methylpyridin-3-yl)carbamate] to COc1cnc2c(-c3nc4cc(F)c(OC[C@@H](C)OC(=O)Nc5cncc(F)c5)nc4s3)cc(C)cc2n1 [Example 682, (R)-1-((6-fluoro-2-(2-methoxy-7-methylquinoxalin-5-yl)thiazolo[5,4-b]pyridin-5-yl)oxy) propan-2-yl (5-fluoropyridin-3-yl)carbamate], the IC50 rises from 0.4 nM to 0.9 nM (2.2-fold). The first is the more potent here.

Source: US12060347B2 (BRISTOL-MYERS SQUIBB COMPANY, priority 2016, dated 2024)
